From paper PMC3989888 (Virology, 2014)
Read-outs that look alike come from different tables or passages of the source.

Legend:
CD4 T cells (PBMC) [1] = test: Ex vivo class II tetramer staining and phenotyping of PBMC from adults; type: cell-based, human (DRB1*0101 healthy adults); settings: for #Tet+/6.0×10^5 CD4+ T cells: ex vivo fresh PBMC, tetramer of the peptide; for % α4β7(+) CCR9(+) / % α4β7(+) CCR9(−) / % α4β7(−) CCR9(+) / % α4β7(−) CCR9(−): of antigen experienced tetramer+ CD4 T cells; for % Antigen experienced T cells: tetramer+ CD4 T cells, CD62L−CD45RA+/− and CD62L+CD45RA−
CD4 T cells (PBMC) [2] = type: cell-based, human (HLA-DR1 children)

## RVEYHFLSPYVSRKESP [TRF]
CD4 T cells (PBMC) [1]; HA-02
  #Tet+/6.0×10^5 CD4+ T cells: 8 /6.0×10^5 CD4^+ T cells
  % α4β7(+) CCR9(+): 33.3%
  % α4β7(+) CCR9(−): 33.3%
  % α4β7(−) CCR9(+): 0%
  % α4β7(−) CCR9(−): 33.3%
  % Antigen experienced T cells: 54.5%
CD4 T cells (PBMC) [1]; HA-15
  #Tet+/6.0×10^5 CD4+ T cells: 4 /6.0×10^5 CD4^+ T cells
  % Antigen experienced T cells: 0%
CD4 T cells (PBMC) [1]; HA-19
  #Tet+/6.0×10^5 CD4+ T cells: 10 /6.0×10^5 CD4^+ T cells
  % α4β7(+) CCR9(+): 33.3%
  % α4β7(+) CCR9(−): 8.33%
  % α4β7(−) CCR9(+): 25%
  % α4β7(−) CCR9(−): 33.3%
  % Antigen experienced T cells: 85.7%
CD4 T cells (PBMC) [1]; HA-23
  #Tet+/6.0×10^5 CD4+ T cells: 8 /6.0×10^5 CD4^+ T cells
  % α4β7(+) CCR9(+): 25%
  % α4β7(+) CCR9(−): 25%
  % α4β7(−) CCR9(+): 0%
  % α4β7(−) CCR9(−): 50%
  % Antigen experienced T cells: 57.1%
CD4 T cells (PBMC) [1]; HA-29
  #Tet+/6.0×10^5 CD4+ T cells: 14 /6.0×10^5 CD4^+ T cells
  % α4β7(+) CCR9(+): 50%
  % α4β7(+) CCR9(−): 0%
  % α4β7(−) CCR9(+): 0%
  % α4β7(−) CCR9(−): 50%
  % Antigen experienced T cells: 50%
CD4 T cells (PBMC) [1]; HA-41
  #Tet+/6.0×10^5 CD4+ T cells: 3 /6.0×10^5 CD4^+ T cells
  % α4β7(+) CCR9(+): 0%
  % α4β7(+) CCR9(−): 33.3%
  % α4β7(−) CCR9(+): 0%
  % α4β7(−) CCR9(−): 66.7%
  % Antigen experienced T cells: 100%
CD4 T cells (PBMC) [1]; HA-51
  #Tet+/6.0×10^5 CD4+ T cells: 98 /6.0×10^5 CD4^+ T cells
  % α4β7(+) CCR9(+): 20.7%
  % α4β7(+) CCR9(−): 44.8%
  % α4β7(−) CCR9(+): 6.9%
  % α4β7(−) CCR9(−): 27.6%
  % Antigen experienced T cells: 36.7%
CD4 T cells (PBMC) [1]; HA-52
  #Tet+/6.0×10^5 CD4+ T cells: 72 /6.0×10^5 CD4^+ T cells
  % α4β7(+) CCR9(+): 0%
  % α4β7(+) CCR9(−): 66.7%
  % α4β7(−) CCR9(+): 0%
  % α4β7(−) CCR9(−): 33.3%
  % Antigen experienced T cells: 27.3%
CD4 T cells (PBMC) [2]; both groups of children (vaccinated and placebo), data not shown
  Tetramer+ cells with phenotype of antigen-experienced cells: 0–30%
CD4 T cells (PBMC) [2]; placebo recipient children (n = 3)
  Frequency of tetramer stained antigen experienced CD4 T cells: <0.0001–0.003%
CD4 T cells (PBMC) [2]; vaccinated children (n = 3), two weeks after second dose of RIX4414
  Frequency of tetramer stained antigen experienced CD4 T cells: <0.0001–0.01%
